Results on five molecules are retold here after US7432365B1, “DNA molecules encoding beta clamp proteins of gram positive bacteria” (priority 1998, dated 2008).

To fix the notation:
B2: Streptococcus pyogenes δ subunit (holA gene product) (other)
chain: MIAIEKIEKLSKENLGLITLVTGDDIGQYSQLKSRLMEQIAFDKDDLAYSYFDMSEAAYQDAEMDLVSLPFFAEQKVVIFDHLLDITTNKKSFLKEKDLKAFEAYLENPLETTRLIIFAPGKLDSKRRLVKLLKRDALVLEANPLKEAELRTYFQKYSHQLGLGFESGAFDQLLLKSNDDFSQIMKNMAFLKAYKKTGNISLTDIEQAIPKSLQDNIFDLTRLVLGGKIDAARDLIHDLRLSGEDDIKLIAIMLGQFRLFLQLTILARDVKNEQQLVISLSDILGRRVNPYQVKYALKDSRTLSLAFLTGAVKTLIETDYQIKTGLYEKSYLVDIALLKIMTHSQK
notes: also called delta; putative δ

The subject of one test is Pol II. The note with it: cited from earlier work.
The test system of the next test is Peak3 (Pol I). The test is described as follows: DNA polymerase assay in presence or absence of pCMB, NEM, 0.15 M KCl. To be noted: S. aureus Peak3. The format is biochemical, Staphylococcus aureus. The procedure: (§1) These assays were used in the purification of DNA polymerases from S. aureus cell extracts. Assays contained 2.5 μg activated calf thymus DNA in a final volume of 25 μl replication buffer. An aliquot of the fraction to be assayed was added to the assay mixture on ice followed by incubation at 37° C. for 5 min.
(§2) Next, it was determined which of these peaks of DNA polymerase activity correspond to DNA polymerases 1, I, and III, and which peak is the unidentified DNA polymerase. In the Gram positive bacterium B. subtilis, Pol III is inhibited by pCMB, NEM, and 0.15 M NaCl, Pol II is inhibited by KCl, but not NEM or 0.15 M KCL, and Pol I is not inhibited by any of these treatments (Gass et al., “Further Genetic and Enzymological Characterization of the Three Bacillus subtilis Deoxyribonucleic Acid Polymerases,” J. Biol. Chem., 248:7688-7700 (1973), which is hereby incorporated by reference). […] Peak 3 clearly corresponded to Pol I, because it was not inhibited by NEM, pCMB, or 0.15 M NaCl. Peak 2 correspond to Pol II, because it was not inhibited by NEM, but was inhibited by pCMB and 0.15 M NaCl. Peaks 1 and 4 both had characteristics that mimic Pol III; however, peak 4 elutes on MonoQ at a similar position as Pol III-L expressed in E. coli (see FIG. 2B).

The subject of the next test is Peak1 (new polymerase). Described as above. The note with it: S. aureus Peak1. The format is biochemical, Staphylococcus aureus. The procedure:
as §1, §2

The next test concerns the target Pol III-L (Bacillus subtilis, UniProt P13267). To be noted: Pol III / Pol III-L; cited from earlier work.
For another test, the system named is Peak2 (Pol II). The test is described as follows: DNA polymerase assay in presence or absence of pCMB, NEM, 0.15 M KCl. The format is biochemical, Staphylococcus aureus. To be noted: S. aureus Peak2. The procedure: (§3) These assays were used in the purification of DNA polymerases from S. aureus cell extracts. Assays contained 2.5 μg activated calf thymus DNA in a final volume of 25 μl replication buffer. An aliquot of the fraction to be assayed was added to the assay mixture on ice followed by incubation at 37° C. for 5 min. DNA synthesis was quantitated using DE81 paper as described in Rowen et al., “Primase, the DnaG Protein of Escherichia coli. An Enzyme Which Starts DNA Chains,” J. Biol. Chem., 253:758-764 (1979), which is hereby incorporated by reference.
(§4) Next, it was determined which of these peaks of DNA polymerase activity correspond to DNA polymerases 1, I, and III, and which peak is the unidentified DNA polymerase. In the Gram positive bacterium B. subtilis, Pol III is inhibited by pCMB, NEM, and 0.15 M NaCl, Pol II is inhibited by KCl, but not NEM or 0.15 M KCL, and Pol I is not inhibited by any of these treatments (Gass et al., “Further Genetic and Enzymological Characterization of the Three Bacillus subtilis Deoxyribonucleic Acid Polymerases,” J. Biol. Chem., 248:7688-7700 (1973), which is hereby incorporated by reference).

In another test the target is T1, Peak4 (Pol III-L) (Staphylococcus aureus, UniProt P0C1P9).
T1 construct: peak 4 (last peak off Mono Q); endogenous in cells; host or cells: S. aureus strain 4220 lysate, MonoQ peak 4 (partially pure)
T1 sequence (P0C1P9 1-1435): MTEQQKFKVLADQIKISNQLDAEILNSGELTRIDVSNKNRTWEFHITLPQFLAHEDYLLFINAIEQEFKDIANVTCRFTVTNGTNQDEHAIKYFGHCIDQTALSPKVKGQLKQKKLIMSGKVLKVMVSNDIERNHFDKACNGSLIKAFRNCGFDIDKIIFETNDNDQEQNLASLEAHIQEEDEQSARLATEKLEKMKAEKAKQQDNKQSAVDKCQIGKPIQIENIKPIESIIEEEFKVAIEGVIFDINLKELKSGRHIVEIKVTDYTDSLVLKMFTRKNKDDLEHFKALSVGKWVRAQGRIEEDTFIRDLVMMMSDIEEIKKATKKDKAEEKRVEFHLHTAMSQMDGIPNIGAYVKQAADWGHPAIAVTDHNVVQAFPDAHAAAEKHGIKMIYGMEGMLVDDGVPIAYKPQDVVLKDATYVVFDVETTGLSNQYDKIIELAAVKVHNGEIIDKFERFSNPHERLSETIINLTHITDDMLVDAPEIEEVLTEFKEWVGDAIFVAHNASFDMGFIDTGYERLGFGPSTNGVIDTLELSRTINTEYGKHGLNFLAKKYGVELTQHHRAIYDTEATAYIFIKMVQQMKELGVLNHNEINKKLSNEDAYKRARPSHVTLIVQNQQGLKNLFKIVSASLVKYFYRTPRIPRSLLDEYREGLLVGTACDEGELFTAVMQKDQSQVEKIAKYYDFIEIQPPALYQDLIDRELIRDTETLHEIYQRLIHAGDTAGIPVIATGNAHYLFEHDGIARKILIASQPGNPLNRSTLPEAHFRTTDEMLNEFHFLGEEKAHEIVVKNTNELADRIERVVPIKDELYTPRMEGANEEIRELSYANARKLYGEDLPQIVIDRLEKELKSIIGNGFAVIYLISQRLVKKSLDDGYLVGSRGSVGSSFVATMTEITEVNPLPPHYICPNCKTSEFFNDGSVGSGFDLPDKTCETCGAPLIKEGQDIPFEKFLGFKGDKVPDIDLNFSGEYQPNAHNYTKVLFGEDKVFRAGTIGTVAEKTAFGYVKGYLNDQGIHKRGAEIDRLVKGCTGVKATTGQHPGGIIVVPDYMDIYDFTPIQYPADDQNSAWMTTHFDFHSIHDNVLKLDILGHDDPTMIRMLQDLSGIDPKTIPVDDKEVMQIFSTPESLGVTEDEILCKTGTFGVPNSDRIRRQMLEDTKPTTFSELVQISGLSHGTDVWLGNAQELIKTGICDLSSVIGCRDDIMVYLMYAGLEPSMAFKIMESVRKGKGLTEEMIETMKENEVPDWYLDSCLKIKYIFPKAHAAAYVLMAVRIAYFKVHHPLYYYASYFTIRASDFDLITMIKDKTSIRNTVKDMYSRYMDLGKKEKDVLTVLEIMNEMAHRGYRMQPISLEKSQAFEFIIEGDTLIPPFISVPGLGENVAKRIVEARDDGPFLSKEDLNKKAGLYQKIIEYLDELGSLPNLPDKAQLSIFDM
The description is as above. It counts as biochemical. The note with it: S. aureus Peak4. The procedure: as §3, §4

A further test concerns the target Pol I (Bacillus subtilis, UniProt O34996). To be noted: cited from earlier work.
Test [1] addresses Staphylococcus aureus beta subunit (dnaN gene product) (Staphylococcus aureus) (UniProt P0A022). The test is described as follows: cell-based or functional assay.
The target in test [2] is B2. The test is described as follows: gel filtration on Superose 6 in buffer A with 100 mM NaCl, SDS-PAGE of fractions. (In general: In gel filtration, larger molecules generally elute earlier.)
Test [3] concerns the target T2, Streptococcus pyogenes δ′ subunit (holB gene product) (Streptococcus pyogenes).
T2 construct: also called delta prime; 6′
T2 chain: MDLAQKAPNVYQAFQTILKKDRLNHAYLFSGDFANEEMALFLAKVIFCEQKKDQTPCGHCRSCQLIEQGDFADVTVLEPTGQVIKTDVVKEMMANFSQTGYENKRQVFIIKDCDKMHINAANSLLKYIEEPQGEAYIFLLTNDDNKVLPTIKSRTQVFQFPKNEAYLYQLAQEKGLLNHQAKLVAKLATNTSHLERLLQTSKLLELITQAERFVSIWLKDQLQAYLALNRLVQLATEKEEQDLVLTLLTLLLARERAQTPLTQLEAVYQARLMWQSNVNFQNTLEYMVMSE
The test is described as above.

Test [4] has as its target T2, Streptococcus pyogenes δ′ subunit (holB …). The test is described as follows: gel filtration on Superose 6 of an α-large, τ, δ, δ′ mixture, SDS-PAGE of fractions.

Chain of Pol I (O34996 whole entry): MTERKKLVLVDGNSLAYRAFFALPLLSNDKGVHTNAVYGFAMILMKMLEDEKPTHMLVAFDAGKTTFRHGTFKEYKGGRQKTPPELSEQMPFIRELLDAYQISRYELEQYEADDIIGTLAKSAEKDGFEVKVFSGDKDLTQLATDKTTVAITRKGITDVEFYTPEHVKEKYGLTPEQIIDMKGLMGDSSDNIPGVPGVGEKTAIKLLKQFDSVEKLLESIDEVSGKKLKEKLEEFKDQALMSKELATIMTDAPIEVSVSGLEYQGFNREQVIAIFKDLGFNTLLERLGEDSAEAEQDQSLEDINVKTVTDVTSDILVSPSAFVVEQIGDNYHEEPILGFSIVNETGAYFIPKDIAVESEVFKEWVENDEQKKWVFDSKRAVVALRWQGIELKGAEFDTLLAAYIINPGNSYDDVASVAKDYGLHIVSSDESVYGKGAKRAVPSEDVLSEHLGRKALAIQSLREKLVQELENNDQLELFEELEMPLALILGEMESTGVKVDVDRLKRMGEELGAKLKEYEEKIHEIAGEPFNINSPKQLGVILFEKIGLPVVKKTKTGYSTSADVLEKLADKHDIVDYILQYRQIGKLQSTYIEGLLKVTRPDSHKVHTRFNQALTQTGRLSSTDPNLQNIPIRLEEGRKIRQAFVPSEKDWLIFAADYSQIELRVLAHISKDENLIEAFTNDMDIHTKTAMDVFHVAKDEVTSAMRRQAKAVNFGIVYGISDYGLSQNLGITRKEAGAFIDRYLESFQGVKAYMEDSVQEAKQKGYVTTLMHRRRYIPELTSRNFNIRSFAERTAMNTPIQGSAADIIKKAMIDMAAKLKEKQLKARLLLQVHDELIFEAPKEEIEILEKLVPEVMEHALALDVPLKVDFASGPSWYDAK
Chain of Pol III-L (P13267 whole entry): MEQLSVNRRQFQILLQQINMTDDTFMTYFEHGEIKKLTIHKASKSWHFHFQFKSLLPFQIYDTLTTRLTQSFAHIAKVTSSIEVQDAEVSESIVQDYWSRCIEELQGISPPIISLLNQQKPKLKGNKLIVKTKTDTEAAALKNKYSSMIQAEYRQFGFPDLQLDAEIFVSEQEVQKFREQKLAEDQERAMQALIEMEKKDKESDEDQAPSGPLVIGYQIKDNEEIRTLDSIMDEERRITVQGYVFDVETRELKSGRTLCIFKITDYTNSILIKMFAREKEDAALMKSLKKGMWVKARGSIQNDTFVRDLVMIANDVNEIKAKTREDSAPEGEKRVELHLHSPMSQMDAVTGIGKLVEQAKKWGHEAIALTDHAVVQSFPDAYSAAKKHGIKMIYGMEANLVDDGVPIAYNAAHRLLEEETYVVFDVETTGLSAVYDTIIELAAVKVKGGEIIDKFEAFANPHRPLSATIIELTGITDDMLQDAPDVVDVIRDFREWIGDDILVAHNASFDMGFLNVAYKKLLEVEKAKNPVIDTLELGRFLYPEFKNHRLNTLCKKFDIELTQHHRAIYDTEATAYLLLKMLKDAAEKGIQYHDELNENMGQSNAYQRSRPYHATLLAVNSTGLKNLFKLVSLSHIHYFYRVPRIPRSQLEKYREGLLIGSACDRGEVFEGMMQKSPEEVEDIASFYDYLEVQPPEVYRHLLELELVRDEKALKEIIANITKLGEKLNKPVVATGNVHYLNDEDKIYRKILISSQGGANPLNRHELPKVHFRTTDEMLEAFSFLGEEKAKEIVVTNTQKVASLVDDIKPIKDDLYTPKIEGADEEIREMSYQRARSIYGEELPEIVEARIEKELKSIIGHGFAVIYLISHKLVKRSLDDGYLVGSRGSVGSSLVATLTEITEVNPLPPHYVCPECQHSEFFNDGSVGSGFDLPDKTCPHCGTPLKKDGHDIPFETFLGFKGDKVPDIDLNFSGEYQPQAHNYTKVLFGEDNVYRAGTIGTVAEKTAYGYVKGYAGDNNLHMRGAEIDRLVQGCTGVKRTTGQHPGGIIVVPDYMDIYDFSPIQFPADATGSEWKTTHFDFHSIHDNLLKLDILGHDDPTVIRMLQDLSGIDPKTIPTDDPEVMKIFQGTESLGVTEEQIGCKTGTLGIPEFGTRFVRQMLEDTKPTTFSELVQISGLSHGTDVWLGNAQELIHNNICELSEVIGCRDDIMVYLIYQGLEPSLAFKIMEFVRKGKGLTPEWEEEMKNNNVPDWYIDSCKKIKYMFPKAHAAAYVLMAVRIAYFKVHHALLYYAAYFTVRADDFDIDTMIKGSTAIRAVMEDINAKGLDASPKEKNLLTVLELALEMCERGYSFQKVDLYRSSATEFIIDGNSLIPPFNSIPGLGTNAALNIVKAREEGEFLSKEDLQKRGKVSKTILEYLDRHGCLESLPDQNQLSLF

`CCN1C(=O)C=CC1=O` [NEM]: the results for the “Expected characteristics: inhibition of polymerase activity” value with Pol II, at Pol III-L and at Pol I were “not inhibited (Not inhibited is defined as greater than 75% remaining activity)”, “inhibited (Inhibited is defined as less than 40% remaining activity)” and “not inhibited (Not inhibited is defined as greater than 75% remaining activity)”, respectively. Besides, the “Observed characteristics: inhibition of polymerase activity” value in the test on Peak3 (Pol I) was “not inhibited (Not inhibited is defined as greater than 75% remaining activity)”; in the test on Peak1 (new polymerase), “inhibited (Inhibited is defined as less than 40% remaining activity)”; with Peak2 (Pol II), “not inhibited (Not inhibited is defined as greater than 75% remaining activity)”; on Peak4 (Pol III-L) it was “inhibited (Inhibited is defined as less than 40% remaining activity)”.
As to `O=C(O)c1cc[c]([Hg][Cl])cc1` [pCMB], the “Expected characteristics: inhibition of polymerase activity” value in the test on Pol II is on record as “inhibited** (Inhibited is defined as less than 40% remaining activity)”; at Pol III-L it was “inhibited (Inhibited is defined as less than 40% remaining activity)”; at Pol I, “not inhibited* (Not inhibited is defined as greater than 75% remaining activity)”. Moreover, the “Observed characteristics: inhibition of polymerase activity” value with Peak3 (Pol I) is reported as “not inhibited (Not inhibited is defined as greater than 75% remaining activity)”; with Peak1 (new polymerase) it was “inhibited (Inhibited is defined as less than 40% remaining activity)”; in the test with Peak2 (Pol II) it was “inhibited (Inhibited is defined as less than 40% remaining activity)”; on Peak4 (Pol III-L), “inhibited (Inhibited is defined as less than 40% remaining activity)”.
For the molecule “Escherichia coli clamp loader complex (gamma complex: gamma, delta, delta prime, chi, psi) (from UniProt P06710 2-431; P28630 1-343; P28631 1-334; P28905 1-147; P28632 1-137)”, the Total DNA synthesis on circular singly primed M13mp18 ssDNA, lane 3 (Pol III-L, S. aureus beta and E. coli clamp loader complex; lane 1 Pol III-L alone 0.6 pmol) in test [1] came out at 0.99 pmol.

B1: Streptococcus pyogenes τ subunit (dnaX gene product) (other)
chain: MYQALYRKYRSQTFDEMVGQSVISTTLKQAVESGKISHAYLFSGPRGTGKTSAAKIFAKAMNCPNQVDGEPCNQCDICRDITNGSLEDVIEIDAASNNGVDEIRDIRDKSTYAPSRATYKVYIIDEVHMLSTGAFNALLKTLEEPTENVFILATTELHKIPATILSRVQRFEFKAIKQKAIREHLAWVLDKEGIAYEVDALNLIARRAEGGMRDALSILDQALSLSPDNQVAIAIAEEITGSISILALGDYVRYVSQEQATQALAALETIYDSGKSMSRFATDLLTYLRDLLVVKAGGDNQRQSAVFDTNLSLSIDRIFQMITVVTSHLPEIKKGTHPRIYAEMMTIQLAQKEQILSQVNLSGELISEIETLKNELAQLKQQLSQLQSRPDSLARSDKTKPKTTSYRVDRVTILKIMEETVRNSQQSRQYLDALKNAWNEILDNISAQDRALLMGSEPVLANSENAILAFEAAFNAEQVMSRNNLNDMFGNIMSKAAGFSPNILAVPRTDFQHIRKEFAQQMKSQKDSVQEEQEVALDIPEGFDFLLDKINTIDD
notes: also called tau; DnaX-protein
Take B1: the values for the binding result in [2] and in test [3] were “no binding (tested: δ (200 µg) in 100 µl)” and “no binding (tested: δ′ (200 µg) in 100 µl)”, respectively.
For the molecule B2, in test [4], the binding result is “binds”.
